SMILES | melting point [°C]
COc1ccc(S(=O)(=O)C(Cc2ccc3ccccc3c2)C(=O)NO)cc1 (stereo unspecified) | 161 to 163
OCC1=C(c2ccc3sccc3c2)N2CCN=C2S1 | 149 to 150
Clc1ccc(C2CN(C(c3ccccc3)c3ccccc3)C2)cc1 | 82
CC(CNC(=S)Nc1ccc(N2CCCCC2)cc1)N(Cc1ccc(Cl)c(Cl)c1)c1ccc(Br)cn1 (stereo unspecified) | 125 to 127
CCOC(=O)c1ncn2c1CN(C)C(=O)c1c(F)cccc1-2 | 196 to 198
N#Cc1cnc2ccsc2c1Cl | 105 to 107
Cn1c(COc2ccc(C=O)cc2)nc2ccc(Sc3cc(C(C)(C)C)c(O)c(C(C)(C)C)c3)cc21 | 219 to 221
FC(F)(F)c1nc(N=C(Cl)c2cccc(Cl)c2)sc1Cl | 89 to 90
CCCN1C(=O)N2C[C@@H](Cc3ccccc3)N=C2c2[nH]c(CSCC)nc21 | 178 to 180
CC(C)c1ccc(C(=O)C2=C(O)C(=O)N(c3ncc(S(=O)(=O)c4ccc([N+](=O)[O-])cc4)s3)C2c2ccc(OC(F)(F)F)cc2)cc1 (stereo unspecified) | 276 to 278
Cn1ncc2c(c1=O)SCCNC2Cc1ccccc1 (stereo unspecified) | 108 to 109
Cc1cc(C)c(S(=O)(=O)OC[C@@H]2C[C@@H]2COS(=O)(=O)c2c(C)cc(C)cc2C)c(C)c1 | 240
COc1nc(C(F)(F)C(F)(F)F)cc(=O)n1-c1cc(OC(C)C)c(Cl)cc1F | 79 to 81
COc1cc(C)c(C(=O)CCCCCCCCCCCCCCCCCO)c(O)c1OC | 101
OC[C@@H](O)[C@@H](O)[C@H](O)[C@@H](O)CNC1CCCCC1 | 144 to 146
CNC(=O)NC(=O)C(CC1CCC(O)C1)c1ccc(Cl)c(Cl)c1 (stereo unspecified) | 82 to 84
CN1C(=O)Nc2ccccc2C12NC(=O)NC2=O (stereo unspecified) | > 280
CCCCCSc1ccc(-c2ncc(CCCCC)cn2)cc1 | 52.8
CCOC(=O)NC(=S)NC(C)C | 52.5 to 54
C=CCC1Oc2c(C)c(C)c(O)c(C)c2S1 (stereo unspecified) | 78.5 to 79.5

SMILES | melting point [°C]
CC(=O)NC[C@H]1CN(c2cc(F)c(N3CCC(n4cccc4)CC3)c(F)c2)C(=O)O1 | 186 to 188
CNC(=O)c1ccc(=O)n(CCNC(=O)c2cccnc2)c1 | 208 to 210
CCc1c(C)[nH]c2cc(OCCN3CCOCC3)c(Cl)cc2c1=O | 270 to 271
CCCOc1ccc(C(=O)O)cc1C(C)=O | 165 to 169
COc1ccc(C=CC(=O)NCCc2ccc(-c3ccccc3)c(S(N)(=O)=O)c2)c(OC)c1 | 85
CC(Nc1nc(-c2ccccc2)cs1)c1ccc(COc2ccc(CC(=O)O)cc2)cc1 (stereo unspecified) | 116 to 118
CCCS(=O)(=O)c1ccccc1S(=O)(=O)Cl | 74 to 77
COCCOCc1c(CN(C)CC(O)c2c[nH]c3ccccc23)sc2c(=O)c(C(=O)NCc3ccc(Cl)cc3)cn(C)c12 (stereo unspecified) | 167 to 169
CN(C)C1=NC2=NC3=C(CN(Cc4ccccc4)CC3=O)CN2N1 | 279 to 281
CON=CC1=CCCN(C(=O)OCCc2ccc([N+](=O)[O-])cc2)C1 | 93 to 94
O=C1c2cc(OCc3ccccc3Cl)ccc2CCN1Cc1cccnc1 | 88.5 to 90
CC(C(=O)N(C)C)n1ccc(-c2ccc(Cl)cc2)n1 (stereo unspecified) | 95 to 99
CN1CCN(c2c(CO)cnc3c(NC(=O)c4c(Cl)cccc4Cl)cccc23)C1=O | 251 to 253
CCCCCCNC(=O)n1nc(Oc2c(Cl)cc(C(F)(F)F)cc2Cl)c(Cl)c1C | 86 to 88
CC(CO)C(O)(Cn1cncn1)c1ccc(Cl)cc1Cl (single isomer, unassigned; (+)) | 110 to 111
CCOC(=O)C(C(C)=O)=C(N)C(F)(F)F | 63 to 65
C[Si](C)(CCCc1nnc(N)nc1N)c1ccccc1 | 132 to 133
C[C@@H](Nc1ncnc2[nH]c(-c3ccc(CNC(=O)CN4CCCCC4)cc3)cc12)c1ccccc1 | 194 to 196
CCCCN1C(=O)NC(Cc2ccc(C=O)cc2)C1=O (stereo unspecified) | 160
COc1ccc(CSc2nnc(-c3ccc4ncccc4c3)o2)cc1C(F)(F)F | 130 to 131

Results, then the compound that gave them:

melting point [°C] | SMILES
198 to 202 | CS(=O)(=O)NNC(=O)c1nc(CS(=O)(=O)c2ccc(Cl)cc2)no1
230 | Oc1ccc(C(c2ccc(O)cc2)n2cncn2)cc1
210 to 211 | COc1ccc2c(c1)Sc1nccnc1N2
232 to 233 | Cc1cccc(NC(=O)Cn2c3c(c4c(Cl)c(Cl)ccc42)CCN(C(=O)OC(C)(C)C)CC3)c1C
235 to 236 | CC(=O)Nc1ncc(C=O)s1
164 to 166 | CS(=O)(=O)c1ccc(/C(=C\C2CCCCCC2)C(=O)O)cc1
110 to 111 | CCOC(=O)CCc1cnc2c(NC(=O)c3c(Cl)cccc3Cl)cccc2c1
144 | OC1(c2ccc3c(c2)OCO3)CCN(Cc2ccccc2)CC1
162 to 163 | O=C1C(c2ccccc2)=C(c2ccccc2)C(c2ccccc2)C1c1ccccc1 (stereo unspecified)
141 to 142 | CCOC(=O)[C@H](Cc1ccc(O)cc1)NC(=O)c1c(Cl)cccc1Cl
170 to 172 | CCOC(=O)C1=C(CS(=O)CCN)NC(C)=C(C(=O)OC)C1c1cccc([N+](=O)[O-])c1 (stereo unspecified)
149 to 150 | NC(=O)NCC(C(=O)O)C(F)(F)F (stereo unspecified)
248 to 251 | COc1cccc2c1nc(C(F)F)n2-c1nc(N2CCOCC2)c2ncn(-c3cncnc3)c2n1
284 to 285 | O=C(O)c1ccc(-c2csc(-c3ccc(Cl)cc3)n2)cc1
282 to 284 | COc1ccc(Cc2cccc(-c3c(O)c4ccc(Cl)cc4[nH]c3=O)c2)cc1
141 to 142 | Cn1cc(Br)c(-c2cccc(NC(=O)Cc3ccc(OC(F)(F)F)cc3)c2)n1

melting point [°C] | SMILES
125 to 126 | O=C(OCc1ccccc1)c1cc(Cl)c(Cl)c(Cl)n1
167 to 168 | CCOC(=O)/C=C/c1ccc(OCC(C)=O)cc1Oc1ncc(C(F)(F)F)cc1Cl
293 to 295 | COc1ccc(Cl)cc1-c1c(N)c(=O)[nH]c2cc([N+](=O)[O-])ccc12
289 | COc1cccc(-c2nc3nccnc3[nH]2)c1
130 to 132 | CC1(C)CN=C(Cc2ccc(Cl)cc2)NC1
240 | C[C@@H]1CN(c2ccc(-c3[nH]nc4c3C(=O)c3c(NC(=O)NN5CCOCC5)cccc3-4)cc2)C[C@H](C)N1C
86 to 95 | CCCc1cc2c(c3ccc(O)cc13)OCc1cc(O)ccc1-2
132 to 134 | O=C(NCC1Cc2c(cccc2-c2ccccc2)O1)OCc1ccccc1 (stereo unspecified)
216 | CN1CCN=C1C(C#N)=NO
125 | COc1cccc([C@H]2SC[C@@H](C(=O)OC(C)(C)C)N2C(=O)CNC(=O)Nc2cccc(C(=O)O)c2)c1
148 to 149 | O=C1CCC(c2ccc(OCC3CO3)c(Cl)c2)=NN1 (stereo unspecified)
174 to 175 | Cc1nc2c(c(=O)[nH]1)CC(C)C2 (stereo unspecified)
140 to 141 | CC(=O)c1cccc(Oc2cccc(-c3cccc(C(=O)NCCC#N)c3)n2)c1
218 to 220 | COc1ccc(Cl)cc1C1(O)C(=O)Nc2ccc(C(F)(F)F)cc21 (stereo unspecified)
156 to 157 | O=C1C2CCCN2c2ccccc2N1Cc1ccccc1 (stereo unspecified)

From a melting point compilation (Tetko et al.; mined from patent text by program, amines drawn as free bases though some values may be those of a salt)
